Series [1] concerns the target T1, preformed human β-2 microglobulin fibrils (Homo sapiens, UniProt P61769). In words: Thioflavin T fluorescence high-throughput screen (slope assay score) for disruption of preformed fibrils. The class given is biochemical. The settings on record: for Slope Assay Score: slope of relative ThT fluorescence versus time, more negative = stronger disruption. The method, then:
As used herein, “slope assay score” means the slope of the relative fluorescence of thioflavin T versus time curve for a given compound in a thioflavin T fluorescence assay. A negative slope signifies a decrease in thioflavin T fluorescence over time.
The human β-2 microglobulin fibrils were prepared in vitro at 0.1 mg/mL protein in 25 mM phosphate, pH 2, 0.2 M NaCl without agitation for 1 week at 37° C., in the same manner as Ivanova et al. See Ivanova et al. (Proc Natl Acad Sci U.S.A. 2004 Jul. 20; 101(29):10584-9).
In our experiments, disruption of the fibrillar structure of preformed β-2 microglobulin fibrils was monitored by fluorescence. The dye used, thioflavin T, serves as a probe for the presence or absence of amyloid fibrils. Thioflavin T binds specifically to human β-2 microglobulin fibrils, causing a red shift in the fluorescence excitation spectra of the dye to produce a peak in the fluorescence emission spectrum at 482 nm when the excitation wavelength is set at 444 nm. […] Because aliquotting of fibrils has an inherent variability, we aimed for a high signal/noise ratio of ˜10.
In the fluorescence assay used here, preformed human β-2 microglobulin fibrils were mixed with a solution of 5 μM ThT in 50 mM glycine, pH 8.6 in a 3:14 ratio (final concentrations: 4.1 μM ThT, 41.2 mM glycine, 0.018 mg/mL β-2 microglobulin, 35 mM NaCl and 4.4 mM phosphate). Fluorescence was measured immediately after mixing (excitation wavelength set at 444 nm, emission wavelengths at 482, 490, and 502 nm) with a Molecular Devices FlexStation II.
In our experiments, we screened 5200 compounds to determine whether a compound could disrupt preformed human β-2 microglobulin fibrils. Preformed β-2 microglobulin fibrils and ThT were mixed in the ratios described above in Example 2 and divided among seventeen 384-well glass-bottom plates (Costar #6569) using 40 μL/well. Each of the sixteen commercial plates contained four columns of control wells: columns 1, 2, and 23 contained preformed fibrils+dimethylsulfoxide (herein, DMSO), but no compound; column 24 contained nonfibrillar β2M+DMSO (no compound). The final concentrations of compound and DMSO in the other wells were 10 μM and 1%, respectively. Compounds were obtained from the following chemical libraries: the MicroSource Discovery Systems, Inc. Spectrum Collection library (J Virology 77: 10288 (2003); Ann Rev Med 56: 321 (2005)), the first four plates from the Prestwick Chemical Inc. library, two BIOMOL plates (phosphatase/kinase inhibitor library and bioactive lipid library), and the first five plates from the ChemBridge Corporation DIVERSet.
Plate 17 was prepared in-house and set up slightly differently than the commercial plates. Column 24 contains nonfibrillar B2M as in the other plates. However, only the first two rows contain added compounds, and the remaining rows contain control samples (fibrils mixed with thioflavin T, no compound). The chemicals used to prepare this supplemental plate were purchased from SIGMA. For each compound, a 1 mM solution in OmniSolv DMSO was prepared and filtered with Millex-FG 0.2 micron filters. The supplementary plate contained compounds at 1 or 10 mM in 100% DMSO, such that the final screening concentration is 10 or 100 μM compound in I% DMSO.
All plates were read manually on a Molecular Devices FlexStation II using the bottom-read function. For each of the wells, an initial fluorescence intensity measurement was taken as a baseline.

In series [2] the target is T1, preformed human β-2 microglobulin fibrils. In words: Dose-response testing by thioflavin T fluorescence. The class given is biochemical. The settings on record: for Dose-Response (conc. at which slope is better than control): ThT/β2M fibril fluorescence, tested 100 nM to 10 mM. The protocol: Twelve compounds were selected for testing their dose-response effects. Dose-response curves were derived as follows. Preformed β-2 microglobulin fibrils were mixed with ThT in the ratios described above and divided into portions of 40 μL per well across 8 wells. The final concentrations were the same as used in the high-throughput screen: 4.1 μM ThT, 41.2 mM glycine, 0.018 mg/mL B2M, 35 mM NaCl, 4.4 mM phosphate. The first and last wells of each row were controls (B2M fibrils+ThT+solvent (water or DMSO)). To wells 2-7 of a given row, test compound was added to the β2M fibril/ThT mix such that the following final concentrations in the well were reached: 10 mM, 1 mM, 100 μM, 10 μM, 1 μM, and 100 nM. Each row was set up in duplicate. The wells were incubated for 99 hours and data collected at 2.5 hour intervals. Compound 22 was tested using both water and DMSO as solvent.
It is visually apparent that concentrations down to 10 μM of both compound 22 and L18 affect the B2M/Tht fluorescence.

For series [3] the target is unchanged. In words: Electron microscopy as a secondary screen of fibril disruption. The class given is biochemical. The conditions noted are these: for effect on fibrils by electron microscopy: at the concentrations tested. The protocol:
Electron microscopy was used to confirm the effects of, among others, compounds 22 and L18 on the fibrils. Compounds 22 and L18 were mixed with drug and solvent or solvent alone and were separately incubated with preformed human β-2 microglobulin fibrils for two weeks. Compound 22 was tested at three concentrations (1 mM, 100 μM, and 10 μM). Aliquots were taken immediately after mixing, at day 2, at day 5, day 7, and day 14. Samples were fixed to grids (made hydrophilic by glow-discharge) upon taking the aliquots, washed with distilled water, and stained with 1% uranyl acetate. Grids were examined in a Hitachi H-7000 transmission electron microscope operating at 75 kV. Images were collected on Kodak electron microscope film 4489.

Series [4] deals with preformed β-amyloid fibrils. The settings on record: Bush 2002; cited from earlier work.
Series [5] relates to β-amyloid fibrils. The settings on record: Bush study; cited from earlier work.
The conditions of series [6]: Gordon M et al 2006; cited from earlier work.

Where a name gives a salt, the structure may show the parent alone. Read-outs that look alike come from different tables or passages of the source. Bounds are passed on as bounds.

T1 sequence (P61769 21-119): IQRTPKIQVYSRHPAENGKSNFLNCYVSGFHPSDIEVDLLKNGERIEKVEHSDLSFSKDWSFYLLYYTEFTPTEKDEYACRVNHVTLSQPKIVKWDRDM

`CCn1cc(C(=O)O)c(=O)c2ccc(C)nc21` [nalidixic acid]: in series [1], the “effective in the fluorescence assay at disrupting β-2 microglobulin fibers” value (shortened to “effective in the fluorescence assay”) is given as “effective”.
Turning to `CN1CCc2cccc3c2[C@H]1Cc1ccc(O)c(O)c1-3` [Apomorphine hydrochloride hemihydrate], in series [1], the “effective in the fluorescence assay” value was “effective” and the “Slope Assay Score” value was “−.061”. In series [2], the “concentration at which the compound affects thioflavin T/β-2M fibril fluorescence in a dose-dependent manner” value (shortened to “concentration … in a dose-dependent manner”) is reported as “less than or equal to 1 μM”, the “dose-dependent effect on thioflavin T/β-2 microglobulin fibril fluorescence (words)” value (“dose-dependent effect … (words)” below) is recorded as “dose-dependent effect” and the “Dose-Response (conc. at which slope is better than control)” value was in the range of 1 to 10 µM.
For the molecule `COC(=O)c1c(C)c2c(c(C)c1O)OC(=O)c1c(C)c(Cl)c(O)c(Cl)c1O2` [leoidin], the “effective in the fluorescence assay” value in series [1] is recorded as “effective”.
In the case of `COc1cc(NC(C)CCCN)c2ncccc2c1` (centres unmarked) [Primaquine diphosphate], in series [1], the “effective in the fluorescence assay” value was “effective” and the “Slope Assay Score” value is on record as “−.058”. In series [2], the “concentration … in a dose-dependent manner” value was “less than or equal to 10 μM”, the “dose-dependent effect … (words)” value is “dose-dependent effect” and the “Dose-Response (conc. at which slope is better than control)” value amounted to 10 µM.
`Cc1cc(N)c2ccccc2[n+]1CCCCCCCCCC[n+]1c(C)cc(N)c2ccccc21` [dequalinium dichloride]: the “effective in the fluorescence assay” value in series [1] is reported as “effective”.
On the same count and under the same terms, the value for `Cc1c(C(=O)O)c(O)cc2c1C(=O)c1c(O)c([C@@H]3O[C@H](CO)[C@@H](O)[C@H](O)[C@H]3O)c(O)c(O)c1C2=O` [carminic acid] was “effective”.
On to `COc1cc(C)c2c(c1C=O)Oc1c(c(C)c(O)c3c1C(O)OC3=O)OC2=O` (centres unmarked) [Stictic Acid], for which, in series [1], the “effective in the fluorescence assay” value is listed as “effective” and the “Slope Assay Score” value was “−.098”. In addition, in series [2], the “concentration … in a dose-dependent manner” value was at most 10 µM, the “dose-dependent effect … (words)” value was “dose-dependent effect” and the “Dose-Response (conc. at which slope is better than control)” value worked out at 10 µM. Besides, in series [3] (two-week incubation), the “state of fibrils by electron microscopy at 100 μM compound” value is on record as “mostly disrupted” and the “state of fibrils by electron microscopy at 1 mM compound” value (from here on “state of fibrils … at 1 mM compound”) is listed as “mostly disappeared”. Further, the “effect on fibrils by electron microscopy” value in series [3] is reported as “visibly disrupted”.
As for `Clc1ccc(COC(Cn2ccnc2)c2ccc(Cl)cc2Cl)cc1` (centres unmarked) [econazole nitrate], the “effective in the fluorescence assay” value in series [1] is given as “effective”.
For `NCCc1cc(O)c(O)cc1O` [oxidopamine], the “effective in the fluorescence assay” value in series [1] is reported as “effective”.
Consider `C=C1c2c(Cl)ccc(O)c2C(O)=C2C(=O)[C@]3(O)C(=O)/C(=C(\N)O)C(=O)[C@@H](N(C)C)[C@@H]3[C@@H](O)[C@H]12` [Meclocycline sulfosalicylate], for which, in series [1], the “effective in the fluorescence assay” value is reported as “effective” and the “Slope Assay Score” value was “−.066”. In addition, in series [2], the “concentration … in a dose-dependent manner” value is “less than or equal to 10 μM”, the “dose-dependent effect … (words)” value is “dose-dependent effect” and the “Dose-Response (conc. at which slope is better than control)” value is 10 µM. Moreover, in series [3] (two-week incubation), the “state of fibrils by electron microscopy at 100 μM compound” value is “no intact fibrils present” and the “state of fibrils … at 1 mM compound” value is listed as “no visible fibrils”. Further, the “effect on fibrils by electron microscopy” value in series [3] is on record as “visibly disrupted”.
Regarding `Oc1c(I)cc(Cl)c2cccnc12` [Clioquinol], the “disruption of preformed β-amyloid fibrils” value in series [4] is listed as “disrupts”. Besides, the effectiveness in mice result in series [5] is given as “effective”.
Turning to `OC[C@H]1O[C@@H](Oc2cc(O)cc(/C=C/c3ccc(O)cc3)c2)[C@H](O)[C@@H](O)[C@@H]1O` [resveratrol-3-glucoside], in series [3], the “effect on fibrils by electron microscopy” value was “did not have an effect on fibrils”.
In the case of Dobutamine hydrochloride, in series [1], the “effective in the fluorescence assay” value is reported as “effective” and the “Slope Assay Score” value is given as “−.058”. Also, in series [2], the “concentration … in a dose-dependent manner” value is “less than or equal to 10 μM”, the “dose-dependent effect … (words)” value is “dose-dependent effect” and the “Dose-Response (conc. at which slope is better than control)” value came out at 10 µM.
`Cc1cc(O)c(C=O)c(O)c1C(=O)O` [Haematommic Acid]: in series [1], the “effective in the fluorescence assay” value is reported as “effective” and the “Slope Assay Score” value is listed as “−.076”. Besides, in series [2], the “concentration … in a dose-dependent manner” value is “less than or equal to 10 μM”, the “dose-dependent effect … (words)” value was “dose-dependent effect” and the “Dose-Response (conc. at which slope is better than control)” value was 1 µM. In addition, the “state of fibrils by electron microscopy at 10 μM compound” value in series [3] (10 μM, two-week incubation) was “disrupted and unwound”. Also, the “state of fibrils … at 1 mM compound” value in series [3] (two-week incubation) was “fibril dissolution was virtually complete”. Moreover, in series [3], the “effect on fibrils by electron microscopy” value is recorded as “visibly disrupted”.
As for `NC(CO)C(=O)NNCc1ccc(O)c(O)c1O` (centres unmarked) [Compound L18, benserazide hydrochloride], the “Slope Assay Score” value in series [1] is “−.066”. In series [2], the “concentration … in a dose-dependent manner” value was found to be 10 µM and the “Dose-Response (conc. at which slope is better than control)” value was found to be 10 µM. Also, the “dose-dependent effect … (words)” value in series [2] (hydrochloride) was “dose-dependent”. Besides, the “concentration at which preformed human B2M fibrils are disrupted” value in series [2] (in the range of) was around 10 µM. Moreover, the “dose-dependent effect … (words)” value in series [2] (listed as benserazide, hydrochloride) is reported as “dose-related effects”. Further, the “effect on fibrils by electron microscopy” value in series [3] is on record as “had an effect on fibrils”. In series [6], the “plasma concentrations routinely achievable” value is 6 µM.

The values are drawn from patent publication US9463195B2, “Dissolution of amyloid fibrils by flavonoids and other compounds” (The Regents of the University of California, priority 2006, dated 2016).
